The values that follow come from PubChem BioAssay (NCI).

What all share (assay): NCI tumour cell line growth inhibition, 48 h
In experiment [1] the test system is SF-295 CNS.
The test system of experiment [2] is SW-620 colon.
Experiment [3] relates to HL-60(TB) leukemia.
For experiment [4], the system named is KM12 colon.
Experiment [5] deals with HT29 colon.
Experiment [6] deals with RXF 393 renal.
In experiment [7] the test system is HOP-92 NSCLC.
Experiment [8] deals with OVCAR-3 ovarian.
The test system of experiment [9] is NCI-H522 lung.
For experiment [10], the system named is NCI/ADR-RES ovarian.
Experiment [11] deals with SNB-75 CNS.
In experiment [12] the test system is 786-0 renal.
The subject of experiment [13] is T-47D breast.
Experiment [14] relates to NCI-H460 lung.
Experiment [15] relates to OVCAR-8 ovarian.
In experiment [16] the test system is SN12C renal.
The test system of experiment [17] is SK-MEL-28 melanoma.
Experiment [18] concerns NCI-H23 lung.
Experiment [19] deals with SF-268 CNS.

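Compound exposure: 48 hours, 5 concentrations, 96-well plates. TGI is the concentration that stops growth completely.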 Where a SMILES comes first, the peptide text is derived from it. [ ]: non-standard residue; d: D form. Phe(4-NO2) = N[CH](Cc1ccc([N+](=O)[O-])cc1)C(=O)O

Consider `CC1=NNC(=O)C1C1CC(c2c[nH]c3ccccc23)=NN(C(N)=O)C1=O` (stereo unspecified), for which the TGI in experiment [1] was more than 100 µM; in experiment [2], more than 100 µM; in experiment [3], more than 100 µM; in [4], 88.3 µM; in experiment [5] it was more than 100 µM; in experiment [6] it was more than 100 µM. Besides, the TGI in [7], in experiment [8], in experiment [9], in experiment [10], in experiment [11] and in experiment [12] was more than 100 µM each time. Further, the TGI in experiment [13], in experiment [14], in experiment [15], in experiment [16], in experiment [17] and in experiment [18] was more than 100 µM each time. The same compound gave a TGI in [19] of more than 100 µM.
Consider `C#C/C=C\CCCCCCCCCCCCCC/C=C\CCCCC#CC(O)C#CCCCC/C=C\CCCCCC/C=C/C(O)C#C` (stereo unspecified), for which the TGI in experiment [1] was more than 55.6 µM; in experiment [2] it was more than 52.9 µM; in experiment [3], 43.6 µM; in [4], 20.1 µM; in [5], more than 48.8 µM; in experiment [6], 41.4 µM. In addition, the TGI in experiment [7] was 36.8 µM; in experiment [8], more than 55.1 µM; in [9], more than 16 µM; in experiment [10], more than 75 µM; in experiment [11], more than 75 µM; in experiment [12], 26.7 µM. Moreover, the TGI in experiment [13] was 26 µM; in [14], more than 75 µM; in [15], more than 59.5 µM; in experiment [16] it was more than 75 µM; in experiment [17] it was more than 72 µM; in experiment [18] it was more than 42.6 µM. The TGI in experiment [19] turned out to be 44.4 µM.
Consider `Cc1c2c(OCC(O)CN3CCN(c4ccccc4)CC3)nn(C)c(=O)c2c(C)n1-c1ccccc1` (stereo unspecified), for which the TGI is 51.3 µM in [1]; 98.8 µM in experiment [2]; 49.1 µM in experiment [3]; more than 100 µM in [4]; 46.3 µM in [5]; 70.2 µM in experiment [6]. Further, the TGI in experiment [7] is more than 100 µM; in experiment [8], 45.5 µM; in [9], 42.2 µM; in experiment [10] it was 63.8 µM; in [11], 75.5 µM; in experiment [12] it was 42.3 µM. Also, the TGI in [13] was 71.8 µM; in experiment [14], 57.7 µM; in experiment [15], more than 100 µM; in [16], 36.5 µM; in [17] it was 40.2 µM; in experiment [18] it was 46.4 µM. Besides, in experiment [19], the TGI turned out to be 73.5 µM.
`NC(=O)c1cccc(N=c2oc3ccc(Br)cc3cc2-c2nc3ccccc3[nH]2)c1`: the TGI amounted to 30.8 µM in experiment [1]; 47.7 µM in experiment [2]; 51.3 µM in [3]; 49 µM in experiment [4]; 34.7 µM in experiment [5]; 43.5 µM in [6]. For the same compound, the TGI in experiment [7] was determined as 36.4 µM; in experiment [8], 32.1 µM; in [9], 77.4 µM; in experiment [10], 35.9 µM; in experiment [11] it was 23.6 µM; in experiment [12] it was 31.4 µM. The TGI in [13] was 29.2 µM; in [14], 43.6 µM; in experiment [15] it was 28.2 µM; in experiment [16], 34.4 µM; in experiment [17] it was more than 100 µM; in [18], 32.7 µM. Moreover, in [19], the TGI was determined as 43.6 µM.
For the compound `CC(=NNC(=S)Nc1cccc(C)c1)c1cccc(C(C)=NNC(=S)Nc2cccc(C)c2)n1`, the TGI in experiment [1] was 34 µM; in [2], 70.5 µM; in experiment [3] it was 70.1 µM; in [4], 59.3 µM; in experiment [5] it was more than 100 µM; in experiment [6], 61.1 µM. Moreover, the TGI in experiment [7] was 63.2 µM; in experiment [8], 26.8 µM; in experiment [9], 57.9 µM; in experiment [10], 76.6 µM; in [11], 69.2 µM; in experiment [12], 63.6 µM. The TGI in experiment [13] was more than 100 µM; in experiment [14], more than 100 µM; in experiment [15], 76.3 µM; in [16], more than 100 µM; in experiment [17], more than 100 µM; in experiment [18], more than 100 µM. In addition, the TGI in [19] is more than 100 µM.
For the compound `COC(=O)C(C)(C)[C@@H]1OC(=O)N(S(=O)(=O)c2c(C)cc(C)cc2C)[C@H]1C(C)C`, the TGI in experiment [1] is more than 100 µM; in experiment [2], more than 100 µM; in experiment [3] it was 84.5 µM; in experiment [4] it was more than 100 µM; in [5], more than 100 µM; in [6], more than 100 µM. Also, the TGI in experiment [7] was 98.2 µM; in [8], more than 100 µM; in experiment [9], more than 100 µM; in experiment [10], more than 100 µM; in experiment [11], more than 100 µM; in [12] it was more than 100 µM. The TGI in experiment [13], in experiment [14], in [15], in [16], in [17] and in experiment [18] was more than 100 µM each time. The compound further came in with a TGI in experiment [19] of more than 100 µM.
Regarding `Cc1occc1C(=S)Nc1ccc(Cl)c(/C=N/OC(C)(C)C)c1`, the TGI in [1] amounted to 28.5 µM; in experiment [2], 36.9 µM; in experiment [3] it was 51.5 µM; in experiment [4] it was 32.3 µM; in experiment [5] it was 28.5 µM; in experiment [6], 31.1 µM. In addition, the TGI was 26.5 µM in experiment [7]; 31.3 µM in [8]; 24.8 µM in experiment [9]; 32.7 µM in experiment [10]; 56.7 µM in experiment [11]; 49.9 µM in [12]. Besides, the TGI in experiment [13] came out at 42.6 µM; in [14], 29.7 µM; in experiment [15], 38.8 µM; in experiment [16], 31.8 µM; in experiment [17], 34.4 µM; in [18], 34.4 µM. This compound had a TGI in [19] of 54.8 µM.
For `COc1cc2oc(-c3ccc4c(c3)OCO4)c(OC)c(=O)c2c(OC)c1O`, the TGI in [1] is more than 100 µM; in experiment [2], more than 100 µM; in experiment [3], 84 µM; in [4] it was more than 100 µM; in [5] it was more than 100 µM; in experiment [6], more than 100 µM. In addition, the TGI is 89.4 µM in experiment [7]; more than 100 µM in experiment [8]; 59.2 µM in [9]; more than 100 µM in experiment [10]; 97.6 µM in [11]; 43.9 µM in [12]. Besides, the TGI in [13], in [14], in experiment [15], in [16], in experiment [17] and in experiment [18] was more than 100 µM throughout. The same compound yielded a TGI in experiment [19] of more than 100 µM.
In the case of `OC[P+](CO)(CO)C12CC3CC(CC(C3)C1)C2`, the TGI in experiment [1] is more than 100 µM; in experiment [2], more than 100 µM; in [3], 35.4 µM; in [4], more than 100 µM; in experiment [5], more than 100 µM; in experiment [6] it was more than 100 µM. Moreover, the TGI in experiment [7] is more than 100 µM; in experiment [8], more than 100 µM; in experiment [9], more than 100 µM; in experiment [10], more than 100 µM; in experiment [11], more than 100 µM; in experiment [12], more than 26 µM. Also, the TGI in experiment [13], in [14], in [15], in experiment [16], in [17] and in experiment [18] was more than 100 µM in each case. In [19], this compound registered a TGI of more than 100 µM.
In the case of `COC(=O)c1ccccc1CC(Cc1ccc2c(c1)CCC2)C(=O)OC` (stereo unspecified), the TGI in experiment [1], in experiment [2], in experiment [3], in experiment [4], in [5] and in experiment [6] was more than 100 µM each time. Besides, the TGI in [7], in [8], in experiment [9], in experiment [10], in experiment [11] and in [12] was more than 100 µM each time. In addition, the TGI in [13], in [14], in [15], in experiment [16], in [17] and in experiment [18] was more than 100 µM each time. For the same compound, in experiment [19], the TGI was more than 100 µM.
`CC(NC(=O)C(Cc1ccc([N+](=O)[O-])cc1)NC(=O)C(N)CCCCN)C(=O)NC(Cc1ccc([N+](=O)[O-])cc1)C(N)=O` (stereo unspecified) (H-K[Phe(4-NO2)]A[Phe(4-NO2)]-NH2; configuration not given here): the TGI in experiment [1] was more than 70.9 µM; in experiment [2], more than 100 µM; in experiment [3] it was more than 48.9 µM; in [4], more than 57.4 µM; in [5], more than 100 µM; in experiment [6], more than 100 µM. Further, the TGI in [7] is 70.5 µM; in [8] it was more than 100 µM; in experiment [9], more than 44.4 µM; in [10], more than 100 µM; in experiment [11], more than 100 µM; in [12] it was more than 100 µM. Besides, the TGI is more than 80.8 µM in experiment [13]; more than 100 µM in experiment [14]; more than 100 µM in experiment [15]; more than 100 µM in [16]; more than 100 µM in experiment [17]; more than 100 µM in experiment [18]. The TGI in [19] was more than 100 µM.
For `Cn1c(=O)c2c(nc3sc4c(n32)C(=O)c2c(O)ccc(O)c2C4=O)n(C)c1=O`, the TGI in experiment [1] was more than 100 µM; in experiment [2], 1.78 µM; in [3] it was 2.83 µM; in [4], 11.6 µM; in experiment [5], 4.34 µM; in experiment [6], 5.59 µM. In addition, the TGI in [7] is 7.93 µM; in experiment [8], more than 20.9 µM; in experiment [9], 0.369 µM; in [10] it was 17.1 µM; in [11] it was 16.1 µM; in [12], 4.37 µM. In addition, the TGI in experiment [13] is 7.6 µM; in [14], more than 59.4 µM; in experiment [15] it was 11 µM; in [16], 3.93 µM; in [17], 21.3 µM; in experiment [18] it was 21.2 µM. In experiment [19], this compound showed a TGI of 24.5 µM.
With `COC(=O)c1ccccc1NC(=NC1CCCCCC1)NS(=O)(=O)c1ccc(C)cc1`, the TGI in [1], in experiment [2], in experiment [3], in [4], in [5] and in experiment [6] was more than 100 µM throughout. Moreover, the TGI in experiment [7], in experiment [8], in [9], in experiment [10], in experiment [11] and in [12] was more than 100 µM each time. The TGI in [13], in experiment [14], in experiment [15], in [16], in experiment [17] and in experiment [18] was more than 100 µM in each case. In experiment [19], this compound displayed a TGI of more than 100 µM.
Take `CCOC(=O)CCSc1nc2ccc(I)cc2c(=O)n1Cc1ccccc1`: the TGI in experiment [1] was more than 73.3 µM; in [2], more than 100 µM; in experiment [3], more than 73.7 µM; in experiment [4], more than 100 µM; in [5], more than 100 µM; in [6] it was more than 100 µM. The TGI in experiment [7] is 53.5 µM; in [8] it was more than 84.5 µM; in [9] it was 52.5 µM; in experiment [10], more than 60.3 µM; in [11], more than 100 µM; in experiment [12] it was more than 96.8 µM. The TGI in experiment [13] was more than 100 µM; in [14], more than 100 µM; in [15], more than 100 µM; in experiment [16] it was more than 100 µM; in experiment [17], more than 100 µM; in [18], more than 64.4 µM. Besides, in experiment [19], the TGI is more than 91.2 µM.
